Patent US8022102B2, “Unsaturated tetracyclic tetrahydrofuran derivatives” (Janssen Pharmaceutica, NV, priority 2004, dated 2011)
pIC50: −log10 of the molar value. Read-outs that look alike come from different tables or passages of the source.

Columns and labels:
[1] = target: T1, human cloned 5-HT2A receptor (Homo sapiens, UniProt P28223); assay: In vitro binding affinity for 5-HT2A receptor (radioligand binding); conditions: human cloned 5-HT2A receptor, radioligand binding; for IC50: read-out: h-5HT2A (converted)
T1 construct: expressed in transfected cells; host or cells: L929 cells
T1 sequence (P28223 whole entry): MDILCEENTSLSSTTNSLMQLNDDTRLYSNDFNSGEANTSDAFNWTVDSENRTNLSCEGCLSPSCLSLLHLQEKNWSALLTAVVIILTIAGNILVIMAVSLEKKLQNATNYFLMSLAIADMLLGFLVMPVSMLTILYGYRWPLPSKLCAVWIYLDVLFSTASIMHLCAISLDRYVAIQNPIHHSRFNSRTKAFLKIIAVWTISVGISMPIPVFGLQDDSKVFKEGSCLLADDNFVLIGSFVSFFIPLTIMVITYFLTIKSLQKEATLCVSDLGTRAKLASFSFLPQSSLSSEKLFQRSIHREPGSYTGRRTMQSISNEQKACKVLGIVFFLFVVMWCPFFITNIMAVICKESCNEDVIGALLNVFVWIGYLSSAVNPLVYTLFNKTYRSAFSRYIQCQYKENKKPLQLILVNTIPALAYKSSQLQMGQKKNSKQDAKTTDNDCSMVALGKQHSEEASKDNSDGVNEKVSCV
Procedure: During the incubation, the radioligands bind to the receptor. When equilibrium of binding is reached, the receptor bound radioactivity is separated from the non-bound radioactivity, and the receptor bound activity is counted. The interaction of the test compounds with the receptors is assessed in competition binding experiments. Various concentrations of the test compound are added to the incubation mixture containing the tissue preparation and the radioligand. Binding of the radioligand will be inhibited by the test compound in proportion to its binding affinity and its concentration. The affinities of the compounds for the 5-HT2 receptors were measured by means of radioligand binding studies conducted with: (a) human cloned 5-HT2A receptor, expressed in L929 cells using [^125I]R91150 as radioligand and (b) human cloned 5-HT2C receptor, expressed in CHO cells using [^3H]mesulergine as radioligand.

[2] = target: T2, human Dopamine D2L receptor (Homo sapiens, UniProt P14416); assay: In vitro binding affinity for human D2L receptor ([3H]Spiperone); conditions: human D2L receptor-transfected CHO cell membranes, [3H]Spiperone; read-out: h-D2L (converted)
T2 construct: expressed in transfected cells; host or cells: CHO cells
T2 sequence (P14416 whole entry): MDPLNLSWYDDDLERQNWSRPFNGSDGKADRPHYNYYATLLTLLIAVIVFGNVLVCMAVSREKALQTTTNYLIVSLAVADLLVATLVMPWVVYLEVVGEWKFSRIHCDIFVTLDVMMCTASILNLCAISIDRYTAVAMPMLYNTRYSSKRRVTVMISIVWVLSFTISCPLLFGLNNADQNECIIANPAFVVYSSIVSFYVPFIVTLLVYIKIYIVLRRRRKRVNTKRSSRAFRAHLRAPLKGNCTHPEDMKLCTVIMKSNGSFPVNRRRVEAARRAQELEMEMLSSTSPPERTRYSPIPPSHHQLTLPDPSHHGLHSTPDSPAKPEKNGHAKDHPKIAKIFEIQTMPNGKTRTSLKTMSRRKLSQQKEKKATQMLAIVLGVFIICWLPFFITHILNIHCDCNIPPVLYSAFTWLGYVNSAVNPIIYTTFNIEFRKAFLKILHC
Procedure: Frozen membranes of human Dopamine D2L receptor-transfected CHO cells were thawed, briefly homogenised using an Ultra-Turrax T25 homogeniser and diluted in Tris-HCl assay buffer containing NaCl, CaCl2, MgCl2, KCl (50, 120, 2, 1, and 5 mM respectively, adjusted to pH 7.7 with HCl) to an appropriate protein concentration optimised for specific and non-specific binding. Radioligand [^3H]Spiperone (NEN, specific activity ˜70 Ci/mmol) was diluted in assay buffer at a concentration of 2 nmol/L. Prepared radioligand (50 μl), along with 50 μl of either the 10% DMSO control, Butaclamol (10^−6 mol/l final concentration), or compound of interest, was then incubated (30 min, 37° C.) with 400 μl of the prepared membrane solution. Membrane-bound activity was filtered through a Packard Filtermate harvester onto GF/B Unifilterplates and washed with ice-cold Tris-HCl buffer (50 mM; pH 7.7; 6×0.5 ml). Filters were allowed to dry before adding scintillation fluid and counting in a Topcount scintillation counter. Percentage specific bound and competition binding curves were calculated using S-Plus software (Insightful).

[3] = target: T3, human cloned 5-HT2C receptor (Homo sapiens, UniProt P28335); assay: In vitro binding affinity for 5-HT2C receptor (radioligand binding); conditions: human cloned 5-HT2C receptor, radioligand binding; for IC50: read-out: h-5HT2C (converted)
T3 construct: expressed in transfected cells; host or cells: CHO cells
T3 sequence (P28335 33-458): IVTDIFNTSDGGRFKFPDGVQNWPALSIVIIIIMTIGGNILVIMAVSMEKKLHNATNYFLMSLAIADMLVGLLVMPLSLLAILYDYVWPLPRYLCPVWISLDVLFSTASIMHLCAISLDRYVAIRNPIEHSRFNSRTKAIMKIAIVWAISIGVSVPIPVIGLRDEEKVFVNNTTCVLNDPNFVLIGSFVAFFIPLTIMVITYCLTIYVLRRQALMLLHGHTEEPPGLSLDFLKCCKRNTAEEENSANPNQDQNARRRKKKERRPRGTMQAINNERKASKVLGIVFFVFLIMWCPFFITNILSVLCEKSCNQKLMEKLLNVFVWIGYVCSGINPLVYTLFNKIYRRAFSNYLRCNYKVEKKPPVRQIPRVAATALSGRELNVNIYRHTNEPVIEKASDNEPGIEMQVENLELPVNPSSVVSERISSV
Procedure: During the incubation, the radioligands bind to the receptor. When equilibrium of binding is reached, the receptor bound radioactivity is separated from the non-bound radioactivity, and the receptor bound activity is counted. The interaction of the test compounds with the receptors is assessed in competition binding experiments. Various concentrations of the test compound are added to the incubation mixture containing the tissue preparation and the radioligand. Binding of the radioligand will be inhibited by the test compound in proportion to its binding affinity and its concentration.

Compound	IC50 [1]	IC50 [2]	IC50 [3]	pIC50 ([1]; h-5HT2A)	pIC50 ([3]; h-5HT2C)
CN(C[C@H]1CC2=C(O1)c1cc(F)ccc1Cc1ccccc12)C1CC(=O)NC1=O (mixture of isomers) [Compound 124]	39.8 nM	> 10000 nM			
CNCC1CC2=C(O1)c1cc(F)ccc1Sc1ccccc12 (single isomer, unassigned) [Compound 13]	3.16 nM	200 nM	3.98 nM		
CNCC1CC2=C(O1)c1cc(F)ccc1Sc1ccccc12 (single isomer, unassigned) [Compound 14]			0.2 nM		
CN(C)CC1CC2=C(O1)c1ccccc1Cc1ccccc12 (single isomer, unassigned) [Compound 23]		1580 nM	15.8 nM		
CN(C)CC1CC2=C(O1)c1ccccc1Cc1ccccc12 (single isomer, unassigned) [Compound 24]		158 nM	1.26 nM		
NCC1CC2=C(O1)c1cc(F)ccc1Cc1ccccc12 (stereo not shown) [Compound 1]	1.58 nM		0.794 nM		
CNCC1CC2=C(O1)c1cc(Br)ccc1Cc1ccccc12 (stereo not shown) [Compound 5]	0.794 nM	31.6 nM	0.794 nM		
CCCCc1ccc2c(c1)C1=C(CC(CNC)O1)c1ccccc1C2 (stereo not shown) [Compound 6]	31.6 nM	251 nM			
CNCC1CC2=C(O1)c1cc(F)ccc1C(C)c1ccccc12 (stereo not shown) [Compound 8]	31.6 nM	2000 nM	10 nM		
CCNCC1CC2=C(O1)c1cc(F)ccc1Sc1ccccc12 (stereo not shown) [Compound 18]	0.398 nM	15.8 nM	1.26 nM		
OCCNCC1CC2=C(O1)c1cc(F)ccc1Cc1ccccc12 (stereo not shown) [Compound 19]	1.58 nM	63.1 nM	1 nM		
CN(C)CC1CC2=C(O1)c1ccccc1Cc1ccccc12 (stereo not shown) [Compound 22]	3.98 nM		3.98 nM		
CN(C)CC1CC2=C(O1)c1ccccc1Oc1ccccc12 (stereo not shown) [Compound 25]	63.1 nM	1260 nM	20 nM		
CN(C)CC1CC2=C(O1)c1cc(Br)ccc1Oc1ccccc12 (stereo not shown) [Compound 27]	7.94 nM		2.51 nM		
CN(C)CC1CC2=C(O1)c1cc(F)ccc1Sc1ccccc12 (stereo not shown) [Compound 28]	0.398 nM	12.6 nM			
CN(CCO)CC1CC2=C(O1)c1cc(F)ccc1Cc1ccccc12 (stereo not shown) [Compound 31]	2.51 nM		1.58 nM		

Compound	IC50 [1]	IC50 [2]	IC50 [3]	pIC50 ([1]; h-5HT2A)	pIC50 ([3]; h-5HT2C)
OC1CCN(CC2CC3=C(O2)c2cc(F)ccc2Cc2ccccc23)C1 (stereo not shown) [Compound 33]	0.794 nM	39.8 nM	0.794 nM		
OC1CCN(CC2CC3=C(O2)c2cc(F)ccc2Sc2ccccc23)C1 (stereo not shown) [Compound 34]	0.126 nM	10 nM			
OC1CCCN(CC2CC3=C(O2)c2cc(F)ccc2Cc2ccccc23)C1 (stereo not shown) [Compound 37]	1 nM	20 nM	2 nM		
OCCC1CCN(CC2CC3=C(O2)c2cc(F)ccc2Cc2ccccc23)CC1 (stereo not shown) [Compound 38]	0.316 nM	2 nM	1.26 nM		
COc1cc2c(cc1OC)CN(CC1CC3=C(O1)c1cc(F)ccc1Cc1ccccc13)CC2 (stereo not shown) [Compound 40]	6.31 nM	50.1 nM	2.51 nM		
O=S(=O)(Cc1ccccc1)N1CCN(CC2CC3=C(O2)c2cc(F)ccc2Cc2ccccc23)CC1 (stereo not shown) [Compound 51]	79.4 nM	100 nM	200 nM		
O=S(=O)(Cc1ccccc1)N1CCN(CC2CC3=C(O2)c2cc(F)ccc2Oc2ccccc23)CC1 (stereo not shown) [Compound 52]	100 nM	158 nM	200 nM		
CCOC(=O)N1CCN(CC2CC3=C(O2)c2cc(F)ccc2Oc2ccccc23)CC1 (stereo not shown) [Compound 62]	79.4 nM	631 nM	200 nM		
CN(C)C(=O)N1CCN(CC2CC3=C(O2)c2cc(F)ccc2Cc2ccccc23)CC1 (stereo not shown) [Compound 75]	50.1 nM	794 nM	316 nM		
CN(C)C(=O)N1CCN(CC2CC3=C(O2)c2cc(F)ccc2Oc2ccccc23)CC1 (stereo not shown) [Compound 76]	50.1 nM	251 nM	158 nM		
CCCCNC(=O)N1CCN(CC2CC3=C(O2)c2cc(F)ccc2Cc2ccccc23)CC1 (stereo not shown) [Compound 77]	3.98 nM	126 nM			
O=C(NC1CCCCC1)N1CCN(CC2CC3=C(O2)c2cc(F)ccc2Cc2ccccc23)CC1 (stereo not shown) [Compound 79]	39.8 nM	1580 nM			
CCOC(=O)CNC(=O)N1CCN(CC2CC3=C(O2)c2cc(F)ccc2Oc2ccccc23)CC1 (stereo not shown) [Compound 82]	39.8 nM	1580 nM	158 nM		
O=C(Nc1ccccc1)N1CCN(CC2CC3=C(O2)c2cc(F)ccc2Cc2ccccc23)CC1 (stereo not shown) [Compound 83]	10 nM	251 nM	10 nM		
O=C(Nc1ccc(F)cc1)N1CCN(CC2CC3=C(O2)c2cc(F)ccc2Cc2ccccc23)CC1 (stereo not shown) [Compound 85]	3.16 nM	100 nM			
CN(C[C@H]1CC2=C(O1)c1cc(F)ccc1Cc1ccccc12)C(=O)Oc1ccccc1 [Compound 111]				6.70	8.40

Further lines, with some results ahead:

IC50 [1]	IC50 [2]	IC50 [3]	Compound	pIC50 ([1]; h-5HT2A)	pIC50 ([3]; h-5HT2C)
10 nM		7.94 nM	CN(C)CC1CC2=C(O1)c1cc(F)ccc1Oc1ccccc12 (stereo not shown) [Compound 26]		
15.8 nM		25.1 nM	CN(CCO)CC1CC2=C(O1)c1cc(F)ccc1Oc1ccccc12 (stereo not shown) [Compound 32]		
5.01 nM	10 nM	12.6 nM	OCCN1CCN(CC2CC3=C(O2)c2cc(F)ccc2Cc2ccccc23)CC1 (stereo not shown) [Compound 41]		
3.16 nM	5.01 nM	10 nM	OCCN1CCN(CC2CC3=C(O2)c2cc(F)ccc2Sc2ccccc23)CC1 (stereo not shown) [Compound 42]		
79.4 nM	794 nM	100 nM	CS(=O)(=O)N1CCN(CC2CC3=C(O2)c2cc(F)ccc2Oc2ccccc23)CC1 (stereo not shown) [Compound 45]		
3.98 nM	200 nM	7.94 nM	CC(=O)N1CCN(CC2CC3=C(O2)c2cc(F)ccc2Cc2ccccc23)CC1 (stereo not shown) [Compound 53]		
31.6 nM		100 nM	CC(=O)N1CCN(CC2CC3=C(O2)c2cc(F)ccc2Oc2ccccc23)CC1 (stereo not shown) [Compound 54]		
3.98 nM	316 nM	10 nM	CCCC(=O)N1CCN(CC2CC3=C(O2)c2cc(F)ccc2Cc2ccccc23)CC1 (stereo not shown) [Compound 55]		
100 nM	1260 nM	100 nM	CCCC(=O)N1CCN(CC2CC3=C(O2)c2cc(F)ccc2Oc2ccccc23)CC1 (stereo not shown) [Compound 56]		
3.98 nM	316 nM	20 nM	O=C(C1CC1)N1CCN(CC2CC3=C(O2)c2cc(F)ccc2Cc2ccccc23)CC1 (stereo not shown) [Compound 57]		
2 nM	316 nM	5.01 nM	COC(=O)CC(=O)N1CCN(CC2CC3=C(O2)c2cc(F)ccc2Cc2ccccc23)CC1 (stereo not shown) [Compound 59]		
10 nM	200 nM	20 nM	CCOC(=O)N1CCN(CC2CC3=C(O2)c2cc(F)ccc2Cc2ccccc23)CC1 (stereo not shown) [Compound 61]		
12.6 nM	251 nM	100 nM	COc1ccc(C(=O)N2CCN(CC3CC4=C(O3)c3cc(F)ccc3Oc3ccccc34)CC2)cc1 (stereo not shown) [Compound 74]		
79.4 nM		50.1 nM	CCCCNC(=O)N1CCN(CC2CC3=C(O2)c2cc(F)ccc2Oc2ccccc23)CC1 (stereo not shown) [Compound 78]		
39.8 nM	1000 nM	79.4 nM	O=C(NC1CCCCC1)N1CCN(CC2CC3=C(O2)c2cc(F)ccc2Oc2ccccc23)CC1 (stereo not shown) [Compound 80]		
